Test results published in patent US11485700B2, “Synthesis of (+)-cannabinoids and their therapeutic effects” (SYMRISE AG, priority 2018, dated 2022).
Like-named read-outs stand apart in the source and are kept apart here.

Legend:
CB1 receptor = CB1 receptor (Homo sapiens (Human), UniProt P21554); experiment: In vitro binding to CB1 receptor, [3H]-CP55940 radioligand displacement
Experimental: (§1) Compounds with an expected profile as CB1 and/or CB2 receptor ligands were evaluated by competition studies that allow determining the affinity of these compounds (Ki values) for both receptors against a classical cannabinoid ligand. The competition studies were conducted with membranes transfected with either CB1 or CB2 receptors. For stock solutions the compounds were dissolved at concentrations of 50 and 100 mM and stored at −20° C.
(§2) 96-well plates and the tubes necessary for the experiment were siliconized with Sigmacote (Sigma). Membranes were resuspended in the corresponding buffer and were incubated with the radioligand and each compound for 90 min at 30° C. Non-specific binding was determined with 10 μM WIN55212-2 and 100% binding of the radioligand to the membrane was determined by its incubation with membrane and without any compound. Filtration was performed by a Harvester®filtermate (Perkin-Elmer) with Filtermat A GF/C filters pretreated with polyethylenimine 0.05%. After filtering, the filter was washed nine times with binding buffer, dried and a melt-on scintillation sheet (Meltilex™ A, Perkin Elmer) was melted onto it. Then, radioactivity was quantified by a liquid scintillation spectrophotometer (Wallac MicroBeta Trilux, Perkin-Elmer).
(§3) Radioligand displacement assays were used to evaluate the affinity of the new compounds using membranes from cells (HEK293EBNA) transfected with the CB1 or the CB2 receptors and [^3H]-CP55940 as radioligand. The evaluation of the compounds was conducted in two phases. The first phase consisted in a simple screening with a unique and high concentration of each compound (40 μM). The data was collected from at least three experiments performed in triplicate. […] This consisted of a competition study with [^3H]CP55940 (0.10 nM for CB1 and 0.15 nM for CB2) and different concentrations of the selected compounds (10^−4-10^−11M). The data was analyzed, by using GraphPad Prism® version 5.01 (GraphPad Software Inc., San Diego, Calif., USA), for the calculation of Ki values expressed as mean±SEM of at least three experiments performed in triplicate for each point.

CB2 receptor [1] = biological target: T1, CB2 receptor (Homo sapiens (Human), UniProt P34972); experiment: In vitro binding to CB2 receptor, [3H]-CP55940 radioligand displacement
Experimental: as §1, §2, §3

[2] = test system: LPS-treated human monocytes; experiment: LPS-induced inflammatory parameters in human monocytes; assay type: cell-based; settings: for inhibition at 25 µM: Homo sapiens, Monocyte, maximal effect at 25 μM
Experimental: (§4) Cell cultures: Human primary monocytes were extracted from the whole blood of medically healthy volunteers, who provided written informed consent at the local blood bank (University Hospital of Freiburg, Germany), following a standardized protocol (gradient preparation, Lymphocytes separation medium, PAN Biotech, P04-60125, Aidenbach, Germany) using completely endotoxin-free cultivation. Using 50 ml tubes, 25 ml Pancoll was loaded with 25 ml of blood (buffy coats). The gradient was established by centrifugation at 1800 rpm, 20° C. for 40 min with slow acceleration and deceleration. Peripheral blood mononuclear cells in the interphase were carefully removed and re-suspended in 50 ml pre-warmed phosphate-buffered saline (PBS) (Pan Biotech, P04-36500), followed by centrifugation for 10 min at 1600 rpm and 20° C. The supernatant was discarded and the pellet washed in 50 ml PBS and centrifuged as described above. The pellet was then re-suspended in 50 ml RPMI-1640 low-endotoxin medium supplemented with 10% human serum (Hexcell, Berlin, Germany, SP2080). After counting the number of cells in a particle counter (Euro Diagnostics, Krefeld, Germany), cells were seeded in 24-well plates for enzyme linked immunosorbent assay (ELISA) (2.2 mio. cells/well) or 96-well plates at a density of 2×10^4 cells/well for cell viability testing, and incubated at 37° C. with 5% CO2. The medium and the non-adherent cells (lymphocytes) were removed and fresh RPMI-1640 medium containing 1% human serum added. Enriched monocytes were then ready to be used for the experiments. Primary human fibroblasts and HaCat keratinocytes were obtained from the Uniklinik Freiburg. All cells were maintained in supplemented DMEM (Invitrogen, Life-Technologies, Darmstadt, Germany) medium containing 10% FBS (Bio&Sell, Feucht, Germany) and 1% antibiotics penicillin/streptomycin (from Invitrogen, DMEM complete medium) at 37° C. in a humidified atmosphere of 5% CO2.
Measurement of cytokines and PGE2 in primary human monocytes: Cells were incubated with LPS (Sigma-Aldrich, Taufkirchen, Germany, 10 ng/ml) for 24 h. The cannabinoids (5 doses) were added 30 min before LPS treatment. After 24 h, supernatants were removed, centrifuged and investigated for IL-1beta, IL-8, IL-6, TNFalpha, MMP9, isoprostane, and PGE2 concentrations in EIAs (PGE2 and isoprostane, from Cayman/Biomol, Hamburg, Germany) or ELISAs (IL-1beta, Hiss, Freiburg, Germany; TNFalpha, IL-6 and IL-8, ImmunoTools, Frysoithe, Germany, MMP9, Biotechne, Wiesbaden, Germany) using manufacturer's protocol. The respective extinction was determined using a 96-well plate reader (Berthold, Offenburg, Germany). Each dose was analyzed 4 times in two buffy coats from 2 different donors (2 buffy coats used from 2 different healthy blood donors with final n=4 values).

[3] = test system: IL-1-treated human dermal fibroblasts; experiment: IL-1-induced inflammatory parameters in human dermal fibroblasts; assay type: cell-based; settings: IL-1beta 10 U/ml, 24 h; for inhibition of IL-1-induced PGE2 / inhibition of IL-1-stimulated IL-6 release / inhibition of IL-1-stimulated IL-8 release: maximal effect, doses up to 25 μM
Experimental: as §4
Determination of inflammatory molecules in fibroblasts: Primary human fibroblasts were cultivated as described above and seeded (500000 cells/well) in 24-well plates. Cells were incubated with IL-1beta (Roche, Mannheim, Germany, 10 U/ml) in absence and presence of the cannabinoids (5 doses, n=3) for 24 h. Unstimulated cells served as a negative control. 24 h after cell stimulation, supernatants were removed, centrifuged and investigated for IL-6, PGE2, and IL-8 concentrations by ELISAs according to the manufacturer's protocol (PGE2 from Cayman/Biomol, Hamburg, Germany; IL-6, and IL-8 from Immuno-tools, Frisoythe, Germany). The respective extinction is determined using a 96-well plate reader (Berthold, Offenburg, Germany).

[4] = test system: PolyIC-treated human keratinocytes (HaCat); experiment: Poly I:C-induced proteases in human HaCat keratinocytes; assay type: cell-based; settings: Poly I:C 10 μg/ml, 24 h; for inhibition at 25 µM: Homo sapiens, HaCaT; for inhibition of Poly I:C-stimulated TIMP1: maximal effect, doses up to 25 μM
Experimental: as §4
Determination of MMPs and TIMPs in keratinocytes: Keratinocytes (HaCat) were cultivated as described above. Cells were seeded in 24-well plates incubated with Poly I:C (InvivoGen, San Diego, Calif.; USA, 10 μg/ml) in absence and presence of the cannabinoids (5 doses, n=3) for 24 h. Unstimulated cells served as a negative control. 24 h after cell stimulation, supernatants were removed, centrifuged and investigated for MMP1, MMP9 and TIMP1 concentrations by ELISAs according to the manufacturer's protocol (from Biotechne, Wiesbaden, Germany). The respective extinction was determined using a 96-well plate reader (Berthold, Offenburg, Germany).

primary human monocytes = experiment: Cell viability in human monocytes (Alamar Blue); assay type: cell-based; settings: 24 h
Experimental: Cell cultures: Human primary monocytes were extracted from the whole blood of medically healthy volunteers, who provided written informed consent at the local blood bank (University Hospital of Freiburg, Germany), following a standardized protocol (gradient preparation, Lymphocytes separation medium, PAN Biotech, P04-60125, Aidenbach, Germany) using completely endotoxin-free cultivation. Using 50 ml tubes, 25 ml Pancoll was loaded with 25 ml of blood (buffy coats). The gradient was established by centrifugation at 1800 rpm, 20° C. for 40 min with slow acceleration and deceleration. Peripheral blood mononuclear cells in the interphase were carefully removed and re-suspended in 50 ml pre-warmed phosphate-buffered saline (PBS) (Pan Biotech, P04-36500), followed by centrifugation for 10 min at 1600 rpm and 20° C. The supernatant was discarded and the pellet washed in 50 ml PBS and centrifuged as described above. […] Enriched monocytes were then ready to be used for the experiments. […]
Cell viability: Cells were incubated with the cannabinoids (3 doses, n=4) for 24 h. Cytotoxicity was analyzed by Alamar Blue staining (formazan). […] The plate was then incubated at 37° C. for 2 h in a humidified 5% CO2 atmosphere, and the color reaction determined using a 96-well plate reader (Berthold, Offenburg, Germany, excitation 544 nm, emission 590 nm). […]

CB2 receptor [5] = biological target: T1, CB2 receptor; experiment: CB2 antagonistic activity, CRE-Luc assay in HEK 293T-CB2 cells; assay type: cell-based; settings: WIN 55,212-2 repression of forskolin-induced CRE-Luc
Experimental: HEK 293T-CB1 and HEK 293T-CB2 cells (stably transfected with CB1 and CB2 cDNAs) (10^5/ml) were incubated in 24-well plates and transiently transfected with 0.5 μg/ml of the plasmid CRE-Luc that contains six consensus cAMP responsive elements (CRE) linked to firefly luciferase. Transient transfections were performed with Rotifect (Carl Roth GmbH, Karlsruhe, Germany) according to the manufacturer's instructions and harvested 24 h after transfection.
For CB2 antagonistic activity in cells the potential repression of Forskolin-induced CRE-luc inhibition induced by the compounds was analyzed.
After six hours of stimulation the cells were lysed (in 25 mM Tris-phosphate pH 7.8, 8 mM MgCl2, 1 mM DTT, 1% Triton X-100, and 7% glycerol) and luciferase activity was measured using an Autolumat LB 9501 (Berthold Technologies, Bad Wildbad, Germany) following the instructions of the luciferase assay kit (Promega, Madison, Wis.). The background obtained with the lysis buffer was subtracted in each experimental value, and the specific transactivation expressed as fold induction over basal levels (CRE-Luc).
The potential antagonistic activities of the compounds on the CB2 receptor were studied in the following. […] The negative control (untreated cells, 0% activation) is not listed.

[6] = read-out: inhibition of Poly I:C-induced MMP1
[7] = read-out: inhibition of Poly I:C-stimulated MMP9
[8] = LPS 10 ng/ml, 24 h, read-out: inhibition of LPS-stimulated PGE2 release
[9] = LPS 10 ng/ml, 24 h, maximal effect, doses up to 25 μM

| SMILES | Ki (CB2 receptor [1]) [nM] | doses inhibiting LPS-induced IL-6 ([2]; LPS 10 ng/ml, 24 h) [µM] | doses inhibiting LPS-induced IL-8 ([2]; LPS 10 ng/ml, 24 h) [µM] | doses inhibiting IL-1-induced PGE2 [3] [µM] | doses inhibiting IL-1-stimulated IL-6 release [3] [µM] | doses inhibiting IL-1-stimulated IL-8 release [3] [µM] | inhibition of IL-1-induced PGE2 [3] | inhibition of IL-1-stimulated IL-6 release [3] | inhibition of IL-1-stimulated IL-8 release [3] | inhibition at 25 µM [4, 6] [%] | inhibition at 25 µM [4, 7] [%] | inhibition of Poly I:C-stimulated TIMP1 [4] | doses affecting cell viability (primary human monocytes) [µM] | inhibition at 25 µM [2, 8] [%] | doses inhibiting LPS-stimulated PGE2 release ([2]; LPS 10 ng/ml, 24 h) [µM] | doses inhibiting LPS-stimulated TNFalpha release ([2]; LPS 10 ng/ml, 24 h) [µM] | inhibition of LPS-stimulated TNFalpha release [2, 9] | further results |
| --- | --- | --- | --- | --- | --- | --- | --- | --- | --- | --- | --- | --- | --- | --- | --- | --- | --- | --- |
| C=C(C)[C@H]1CCC(C)=C[C@@H]1c1c(O)cc(CCCCC)c(C(=O)OCC(O)CCC)c1O (single isomer, unassigned; (+)) [(+)-CBD-HPE, (+)-Cannabidiol hydroxypentylester] | 0.8 | ≥ 10 | 25 | 25 | ≥ 10 | ≥ 10 | 50% | 95% | 95% | 20 | 40 | 60% | – | – | – | – | – | Ki (CB1 receptor): 3.1 nM; CB1/CB2 selectivity (CB1 receptor; ratio of CB1-Ki to CB2-Ki): 3.9; doses increasing LPS-mediated IL-1beta ([2]; LPS 10 ng/ml, 24 h): 25 µM; doses inhibiting LPS-stimulated MMP9 ([2]; LPS 10 ng/ml, 24 h): 25 µM |
| C=C(C)[C@H]1CCC(C)=C[C@@H]1c1c(O)cc(CCCCC)cc1O [(+)-CBD, (+)-Cannabidiol] | – | – | 25 | – | ≥ 0.1 | ≥ 0.1 | more than 80% | more than 90% | more than 90% | ~40 | ~40 | ~70% | ≥ 25 | ~80 | ≥ 1 | ≥ 0.1 | around 80% | doses inhibiting Poly I:C-induced MMP1 [4]: 25 µM; doses inhibiting Poly I:C-stimulated MMP9 [4]: ≥ 5 µM; doses inhibiting Poly I:C-stimulated TIMP1 [4]: ≥ 5 µM |
| C=C(C)[C@H]1CCC(C)=C[C@@H]1c1c(O)cc(CCCCC)c(C(=O)OCCO)c1O [(+)-CBD-GE, (+)-Cannabidiol glycolester] | 12.9 | ≥ 0.1 | – | ≥ 5 | ≥ 5 | ≥ 5 | approx. 80% | around 95% | around 95% | – | 30 to 50 | 30-50% | – | ~80 | ≥ 0.1 | ≥ 0.1 | approx. 40% | inhibition at 25 µM ([2]; LPS 10 ng/ml, 24 h, read-out: inhibition of LPS-stimulated IL-1 release): ~40%; inhibition at 25 µM ([2]; LPS 10 ng/ml, 24 h, read-out: inhibition of LPS-stimulated isoprostane release): ~40%; doses inhibiting LPS-stimulated IL-1 release ([2]; LPS 10 ng/ml, 24 h): ≥ 0.1 µM; doses inhibiting LPS-stimulated isoprostane release ([2]; LPS 10 ng/ml, 24 h): ≥ 0.1 µM; inhibition of LPS-induced IL-6 [2, 9]: around 80%; enhancement of LPS-mediated MMP9, more than LPS values ([2]; doses of 5-25 μM): 20-60% |
| C=C(C)[C@H]1CCC(C)=C[C@@H]1c1c(O)cc(CCC)cc1O [(+)-CBDV, (+)-Cannabidivarin] | 33.1 | – | – | – | ≥ 5 | ≥ 5 | more than 80% | – | – | – | – | – | ≥ 25 | – | – | – | – | doses enhancing Poly I:C-stimulated MMP1 [4]: 25 µM |
| COc1ccc(C(=O)c2c(C)n(CCN3CCOCC3)c3cc(I)ccc23)cc1 [AM630] | – | – | – | – | – | – | – | – | – | – | – | – | – | – | – | – | – | CB2 antagonistic activity (CB2 receptor [5]): prevented |
